Measurements as given in article PMC10548512 (Chemical Science, 2023).

Assays:
H1 ectodomain = conditions: pH 7.5
[1] = system: H1N1pdm09 virus (A/Netherlands/602/2009); conditions: for IC50: 1 h

| SMILES | Competition with fluorescein-labelled S5 for binding to H1 protein (H1 ectodomain) | Infection inhibition in single-concentration screen [1] | Plateau of infection inhibition in dose-response [1] | IC50 [1] |
| --- | --- | --- | --- | --- |
| CC[C@H](C)[C@@H]1NC(=O)[C@H](CO)NC(=O)CNC(=O)CNC(=O)[C@H](CC(=O)O)NC(=O)[C@@H]2CCCN2C(=O)[C@H](Cc2c[nH]c3ccccc23)NC(=O)[C@H](CC(N)=O)NC(=O)[C@H](Cc2ccccc2)NC(=O)[C@H](C(C)C)NC(=O)[C@H](Cc2ccccc2)NC(=O)[C@H](CC(C)C)NC(=O)[C@@H]2CSC(=N2)c2cc(ccn2)C[C@@H](C(=O)NCC(N)=O)NC(=O)[C@H](CCCCN)NC(=O)[C@H](CC(N)=O)NC(=O)[C@H]([C@@H](C)O)NC1=O [M5] | compete | clear infection inhibition | plateau at less than full inhibition | 40.3 nM |
| CC[C@H](C)[C@@H]1NC(=O)CNC(=O)[C@H](CC(N)=O)NC(=O)[C@@H]2CCCN2C(=O)[C@H](C(C)C)NC(=O)[C@H](Cc2ccccc2)NC(=O)[C@H](Cc2ccc(O)cc2)NC(=O)[C@@H]2CCCN2C(=O)[C@H](Cc2ccccc2)NC(=O)[C@H](Cc2ccc(O)cc2)NC(=O)[C@H](CC(C)C)NC(=O)[C@@H]2CSC(=N2)c2cc(ccn2)C[C@@H](C(=O)NCC(N)=O)NC(=O)[C@H](CCC(=O)O)NC(=O)[C@H](CC(C)C)NC(=O)[C@H]([C@@H](C)CC)NC(=O)[C@H](CC(N)=O)NC1=O [M7] | compete | clear infection inhibition | plateau at less than full inhibition | 10.8 nM |
